{
  "source": "paper PMC12057341",
  "about": "“In vitro pharmacokinetic/pharmacodynamic modeling of the effect of mucin on polymyxin B activity against Acinetobacter baumannii” (Antimicrobial Agents and Chemotherapy, 2025)",
  "key": {"[1]": {"tested_on": "Acinetobacter baumannii AB121-D0", "test": "MIC at the end (T30h) of TK experiments after regrowth, AB121-D0", "type": "cell-based", "method": "(§1) PMB MICs of both A. baumannii strains were determined in commercial CAMHB (BioMérieux, Marcy-l’Etoile, France) according to the European Committee on Antimicrobial Susceptibility Testing and Clinical and Laboratory Standards Institute (CLSI) recommendations ([33], [34]). PMB MICs of the two A. baumannii isolates were also determined at least in duplicate in CAMHB supplemented with 1% of mucin.\n(§2) Samples were centrifuged (8 minutes at 8,000 rpm); then, the supernates were removed, and the pellets were stored at −80°C in CAMHB-glycerol 20%. A minimum bacterial density of ~10^5 CFU/mL in samples collected at the end of TK experiments was required for MIC susceptibility testing and sequencing.\n(§3) Prior to MIC testing, the isolates were streaked onto a drug-free Mueller-Hinton agar plate and incubated for 24 h."}, "[2]": {"tested_on": "Acinetobacter baumannii AB122-D12", "test": "Time-kill experiments and PK/PD modeling, AB122-D12", "type": "cell-based", "method": "(§4) Bacteria were cultured overnight under shaking (150–170 rpm) in CAMHB at 35°C. The bacterial suspension was then diluted to 1/50 and incubated at 35°C under shaking until an optical density of 0.3 (corresponding to 1.10^8 CFU/ml of bacteria in the exponential growth phase) was achieved. This bacterial suspension was then diluted in order to obtain a starting inoculum at 1.10^6 CFU/mL. TK experiments were performed in CAMHB in the absence and presence of 1% mucin. PMB concentrations varied from 0.5 mg/L to 128 mg/L for AB121-D0 and 8 mg/L to 512 mg/L for AB122-D12. Drug-free CAMHB was used as bacterial growth control for each strain. Tubes were incubated at 35°C under shaking (150–170 rpm), and aliquots were sampled over time at T0h, T1h, T3h, T6h, T10h, T24h, and T30h. Samples were serially diluted in NaCl 0.9% and plated onto Mueller-Hinton agar supplemented with 1% activated charcoal (to prevent PMB carry-over effect). Bacteria were counted after overnight incubation at 35°C. The limit of quantification was fixed based on CLSI guidelines ([38]) and was equal to 400 CFU/ml (i.e. 2.6 log10 CFU/mL). Experiments were conducted in triplicate for both strains.\n(§5) Bacterial counts obtained from TK experiments without mucin were first modeled using NONMEM 7.4 (ICON plc, Dublin, Ireland) with the Laplacian algorithm and the M3 method for handling observations below the limit of quantification ([39]). PMB was assumed to be stable over the course of the experiment as previously shown ([40]). A previously described model with hetero-resistance ([41]), that is, two bacterial subpopulations, one susceptible to PMB (S) and one resistant (R), was used to describe the time course of bacterial counts for the two A. baumannii strains (Fig. 1). Different functions were tested to characterize the PMB killing effect (see supplemental material for model building).\nThen, TK data in the presence of mucin were included in the data set and PMB total concentrations were corrected for mucin binding using equation 1, with unbound PMB concentrations driving the antibacterial effect. […]"}, "[3]": {"tested_on": "Acinetobacter baumannii AB122-D12", "test": "MIC at the end (T30h) of TK experiments after regrowth, AB122-D12", "type": "cell-based", "method": "as §1, §2, §3"}, "[4]": {"tested_on": "Acinetobacter baumannii AB121-D0", "test": "PMB MIC in CAMHB with or without 1% mucin, AB121-D0", "type": "cell-based", "method": "Two clinical MDR strains of A. baumannii, isolated from a patient before (AB121-D0) and 12 days after treatment with colistin (AB122-D12), were used during this study ([32]). AB122-D12 carries a 10 amino acid insertion into the pmrB gene, known to confer PMB resistance.\nas §1"}, "[5]": {"tested_on": "Acinetobacter baumannii AB121-D0", "test": "Time-kill experiments and PK/PD modeling, AB121-D0", "type": "cell-based", "conditions": "for Unbound PMB concentrations at which regrowth was observed in TK: CAMHB + 1% mucin", "method": "as §4, §5\nThen, TK data in the presence of mucin were included in the data set and PMB total concentrations were corrected for mucin binding using equation 1, with unbound PMB concentrations driving the antibacterial effect. Random variability between TK experiments (one experiment corresponding to a replicate of a tested concentration) was included to account for the uncertainty associated with each parameter of equation 1 and thus with the estimation of unbound PMB concentration in TK, such as:\nAn impact of mucin on PD model parameters was tested on top of PMB binding to mucin with the following equation:\n(4) Pj=θj,1×(1−Mucin)+θj,2×Mucin,\nwhere Pj was the jth parameter of the PD model, Mucin was a categorical variable either equal to 0 or 1 depending on its absence or presence in TK experiments respectively, θj,1 and θj,2 corresponded to the Pj value in the absence and in the presence of mucin, respectively. […]"}, "[6]": {"conditions": "assumed for TK modeling, as previously shown; cited from earlier work", "description": "as §5, with “w ...” for “were tested to characterize the PMB killing effect (see supplemental material for model building).”"}, "[7]": {"conditions": "with and without mucin together"}},
  "note": "Entries after “also recorded” stand apart in the source; their conditions may differ. Where a SMILES comes first, the peptide text is derived from it. Bridges are numbered along the chain shown (N, C = ends). [ ]: non-standard residue; d: D form. The star is where a group is joined. X1 = CC[C@H](C)CCCCC(=O)*; Dab = NCC[C@H](N)C(=O)O",
  "data": [
    {"smiles": "CC[C@H](C)CCCCC(=O)N[C@@H](CCN)C(=O)N[C@H](C(=O)N[C@@H](CCN)C(=O)N[C@H]1CCNC(=O)[C@H]([C@@H](C)O)NC(=O)[C@H](CCN)NC(=O)[C@H](CCN)NC(=O)[C@H](CC(C)C)NC(=O)[C@@H](Cc2ccccc2)NC(=O)[C@H](CCN)NC1=O)[C@@H](C)O", "note": "[PMB, polymyxin B] (X1-[Dab]T[Dab][Dab][Dab][dF]L[Dab][Dab]T; lactam 4-C)", "values": [
      {"measurement": "MIC fold-change vs control of respective replicate", "setting": "[1]; TK in CAMHB + 1% mucin, PMB 0.25 mg/L, replicate 3, pmrB Phe164Ile", "result": ">64"},
      {"measurement": "MIC fold-change vs control of respective replicate", "setting": "[1]; TK in CAMHB + 1% mucin, PMB 0.5 mg/L, replicate 2, pmrB Pro170Leu", "result": ">32"},
      {"measurement": "MIC fold-change vs control of respective replicate", "setting": "[1]; TK in CAMHB + 1% mucin, PMB 0.5 mg/L, replicate 3, pmrB Arg231Leu", "result": ">64"},
      {"measurement": "MIC fold-change vs control of respective replicate", "setting": "[1]; TK in CAMHB + 1% mucin, PMB 13 mg/L, replicate 4, pmrB Ala227Val", "result": ">64"},
      {"measurement": "MIC fold-change vs control of respective replicate", "setting": "[1]; TK in CAMHB, PMB 0.5 mg/L, replicate 2, pmrB Arg263His", "result": ">32"},
      {"measurement": "MIC fold-change vs control of respective replicate", "setting": "[1]; TK in CAMHB, PMB 0.5 mg/L, replicate 3, ISAba1 insertion in the promoter of pmrC_3", "result": 32},
      {"measurement": "MIC fold-change vs control of respective replicate", "setting": "[1]; TK in CAMHB, PMB 0.5 mg/L, replicate 4, pmrB Asn353Tyr", "result": ">64"},
      {"measurement": "MIC fold-change vs control of respective replicate", "setting": "[1]; TK in CAMHB, PMB 1 mg/L, replicate 4, pmrB 16.25dup", "result": 32},
      {"measurement": "MIC fold-change vs control of respective replicate", "setting": "[1]; TK in CAMHB, PMB 4 mg/L, replicate 2, pmrB Pro170Leu", "result": ">32"},
      {"measurement": "Regrowth samples at T30h with MIC increased (≥32-fold) compared to control", "setting": "[1]; TK in the absence of mucin, 6 out of 10 samples", "result": 60, "unit": "%"},
      {"measurement": "Regrowth samples at T30h with MIC increased (same order of magnitude, ≥32-fold) compared to control", "setting": "[1]; TK in the presence of mucin, 5 out of 16 samples", "result": 31, "unit": "%"},
      {"measurement": "Cases of regrowth associated with an increase in the MIC at T30h", "setting": "[1]; [7]", "result": 42, "unit": "%"},
      {"measurement": "Fold increase of EC50 in the presence of mucin", "setting": "[2]; 1% mucin vs no mucin, both S and R subpopulations", "result": "increased approx. fivefold; also recorded: fivefold increase"},
      {"measurement": "Unbound PMB concentration able to prevent bacterial regrowth in TK", "setting": "[2]; CAMHB + 1% mucin, no concentration in the range tested prevented regrowth", "result": "> 304", "unit": "mg/L"},
      {"measurement": "PMB concentrations up to which regrowth was observed in TK after initial CFU decay", "setting": "[2]; CAMHB without mucin, 30 h", "result": "≤ 128", "unit": "mg/L"},
      {"measurement": "MIC fold-change vs control of respective replicate", "setting": "[3]; TK in CAMHB + 1% mucin, PMB 48 mg/L, replicate 2, lpxA Ser224Pro", "result": 4},
      {"measurement": "MIC fold-change vs control of respective replicate", "setting": "[3]; TK in CAMHB + 1% mucin, PMB 135 mg/L, replicate 3, ISAba13 insertion in the promoter of lpxC", "result": 8},
      {"measurement": "MIC fold-change vs control of respective replicate", "setting": "[3]; TK in CAMHB + 1% mucin, PMB 135 mg/L, replicate 4, ISAba13 insertion in the promoter of lpxC", "result": 4},
      {"measurement": "MIC fold-change vs control of respective replicate", "setting": "[3]; TK in CAMHB, PMB 16 mg/L, replicate 1, lpxA Arg258Leu", "result": 4},
      {"measurement": "MIC fold-change vs control of respective replicate", "setting": "[3]; TK in CAMHB, PMB 128 mg/L, replicate 1, lpxA Trp206Arg Thr210Ala", "result": 2},
      {"measurement": "MIC fold-change vs control of respective replicate", "setting": "[3]; TK in CAMHB, PMB 128 mg/L, replicate 2, lpxA Trp206Arg Thr210Ala", "result": 0.25},
      {"measurement": "Regrowth samples at T30h with ≥fourfold increase in MIC compared with control", "setting": "[3]; TK in the absence of mucin, 2/18 samples", "result": 11, "unit": "%"},
      {"measurement": "Regrowth samples at T30h with ≥fourfold increase in MIC compared with control", "setting": "[3]; TK in the presence of mucin, 5/26 samples", "result": 19, "unit": "%"},
      {"measurement": "Cases of regrowth associated with an increase in the MIC at T30h", "setting": "[3]; [7]", "result": 16, "unit": "%"},
      {"measurement": "MICu (corrected by fu)", "setting": "[4]; CAMHB + 1% mucin, unbound MIC = MIC x fu", "result": 13, "unit": "mg/L"},
      {"measurement": "MICu ratio in the presence and absence of mucin", "setting": "[4]; MIC with 1% mucin corrected by fu", "result": 13},
      {"measurement": "Fold increase of MIC in the presence of 1% mucin compared to CAMHB", "setting": "[4]; total concentrations", "result": 64, "unit": "fold"},
      {"measurement": "Fold increase of EmaxR in the presence of mucin", "setting": "[5]; 1% mucin vs no mucin", "result": 1.4, "unit": "fold"},
      {"measurement": "Unbound PMB concentrations at which regrowth was observed in TK", "setting": "[5]; one-third of replicates", "result": "≤ 13", "unit": "mg/L"},
      {"measurement": "Unbound PMB concentrations at which regrowth was observed in TK", "setting": "[5]; two-thirds of replicates", "result": "≤ 0.5", "unit": "mg/L"},
      {"measurement": "PMB concentrations up to which regrowth was observed in TK after initial CFU decay", "setting": "[5]; CAMHB without mucin, 30 h", "result": "up to 8 mg/L"},
      {"measurement": "Stability over the course of the experiment", "setting": "[6]", "result": "stable"}
    ]}
  ]
}
